Patent publication US20140127288A1, “LIPOSOME CONTAINING PYRROLOQUINOLINE QUINONE AND SUGAR” (MITSUBISHI GAS CHEMICAL COMPANY, INC., priority 2011, published 2014)

Test system: Chinese hamster ovary cells (CHO-DHFR)
Test: Proliferation study (WST assay)
Format: cell-based
Details: vs cells treated with culture medium alone; one day incubation
Method: Chinese hamster ovary cells (CHO-DHFR; obtained from Dainippon Sumitomo Pharma Co., Ltd.) was cultured in the culture medium, α-MEM+10% fetal calf serum, in an atmosphere of 5% CO2 at 37° C. A 96-well microplate (IWAKI & Co., Ltd.) was used and cells were added to each well at 5000 cells with 100 μl of the culture medium, and the microplate was incubated overnight. After removing the culture medium, a new culture medium containing the liposome composition prepared in Examples 1 to 4 and Comparative Examples 1 to 3 at a predetermined concentration was added to each well. After one day incubation, a test solution in a WST Assay Kit was reacted for 1 hour according to a procedure of the Kit (Dojindo Laboratories), and the absorbance of each well was measured at 450 nm. In WST Assay, the absorbance obtained is proportional to the number of live cells. The liposome compositions prepared in Examples 1 to 4 and Comparative Examples 1 to 3 and […] (for Comparative Example 4) were used as samples, and the samples were diluted by the culture medium and subjected to a test. The concentrations used in the test were 500, 250, 125, 62, 31, 16, 8, 4, 2, 1, 0.5, and 0 μM. In Comparative Example 2, the concentration of the liposome composition was used as the test concentration of the sample. The test was conducted for each sample twice and the average was calculated. […]

## O=C(O)c1cc(C(=O)O)c2c(n1)C(=O)C(=O)c1cc(C(=O)O)[nH]c1-2 [Comparative Example 4, Pyrroloquinoline quinone disodium]
  Concentration of growth inhibition (total cell number decreases by 10%): 500 µM
